Assay type: physicochemical
Method: The measured values for the tested systems were Δπ=245 atmospheres, A=2.41 cm^2, S=333 mg/ ml. Thickness of the membrane was measured directly with a table micrometer. Osmotic pressure was measured on saturated solutions of potassium chloride at 37° C. using a Knauer model VPO vapor pressure osmometer and standard reference solutions of known osmotic pressure for comparison. Surface area of the tablet core was determined by first measuring the dimensions of the tablet core and then calculating surface area using standard mensuration formulae. Drug solubility was determined by measuring the concentration of a saturated solution of potassium chloride by conductivity analysis using a conductivity meter and reference solutions of potassium chloride of known aqueous concentrations. Average release rate was calculated by measuring the mass of potassium chloride released per 2-hour intervals of time according to the experimental procedures described in Example 3. Then, the total mass of potassium chloride released was summed for all whole 2-hour intervals between 20% and 70% (100 mg to 350 mg of potassium chloride) of the initial dose present within the dosage form (500 mg). Finally, the total mass of drug released during these whole intervals was divided by the sum of these time intervals to arrive at the average release rate. […]

Structure (SMILES): [Cl-].[K+] [potassium chloride]
- drug solubility S (saturated aqueous solution): 333 mg/mL
- osmotic pressure Δπ (saturated solution at 37° C.): 245 atmospheres

Reference: patent US20060165798A1, “Oral osmotic dosage form having a high flux membrane” (priority 2005, published 2006)
